The record followed here is US11555821B2, “CA IX-NIR dyes and their uses” (On Target Laboratories, Inc., priority 2016, dated 2023).

Molecules are shown by their SMILES. Where only a bound is given, the exact number is not on record here.

Data set [1] concerns HT29 (a human colon cancer cell line) tumor xenograft. Briefly: Whole body fluorescence imaging of HT29 tumor xenograft bearing mouse (IVIS imager). The class given is in vivo. The settings on record: 10 nmol. Here is the method:
HT29 (a human colon cancer cell line) tumor xenograft bearing mouse was injected with 10 nmol of 61 and imaged with IVIS imager (ex=745 nm, em=ICG, exposure time=1 s) at different time intervals.
(§1) HT29 (a human colon cancer cell line) and HCC827 (a human lung cancer cell line) tumor xenograft bearing mouse was injected with 10 nmol of 61 and imaged with IVIS imager (ex=745 nm, em=ICG, exposure time=1 s) at different time intervals.

Data set [2] relates to SKRC52 human renal tumor xenograft. Kind of data set: Whole body fluorescence imaging of SKRC52 human renal tumor xenograft bearing mouse (IVIS imager). The class given is in vivo. Conditions: 10 nmol, within 2-24 hours after administering to the animal. Here is the method: SKRC52 human renal tumor xenograft bearing mouse was injected with 10 nmol of 54 and imaged with IVIS imager (ex=745 nm, em=ICG, exposure time=1 s) at different time intervals.
SKRC52 human renal tumor xenograft bearing mouse was injected with 10 nmol of 55 and imaged with IVIS imager (ex=745 nm, em=ICG, exposure time=1 s) at different time intervals.
SKRC52 human renal tumor xenograft bearing mouse was injected with 10 nmol of 60 and imaged with IVIS imager (ex=745 nm, em=ICG, exposure time=[…]) at different time intervals.
SKRC52 human renal tumor xenograft bearing mouse was injected with 10 nmol of 61 and imaged with IVIS imager (ex=745 nm, em=ICG, exposure time=[…]) at different time intervals.
SKRC52 human renal tumor xenograft bearing mouse was injected with 10 nmol of 62 and imaged with IVIS imager (ex=745 nm, em=ICG, exposure time=1 s) at different time intervals.
SKRC52 human renal tumor xenograft bearing mouse was injected with 10 nmol of 65 and imaged with IVIS imager (ex=745 nm, em=ICG, exposure time=1 s) at different time intervals.
SKRC52 human renal tumor xenograft bearing mouse was injected with 10 nmol of 69 and imaged with IVIS imager (ex=745 nm, em=ICG, exposure time=1 s) at different time intervals.
SKRC52 human renal tumor xenograft bearing mouse was injected with 10 nmol of 70 and imaged with IVIS imager (ex=745 nm, em=ICG, exposure time=1 s) at different time intervals.
SKRC52 human renal tumor xenograft bearing mouse was injected with 10 nmol 72 and imaged with IVIS imager (ex=745 nm, em=ICG, exposure time=1 s) at different time intervals
SKRC52 human renal tumor xenograft bearing mouse was injected with 10 nmol of 76 and imaged with IVIS imager (ex=745 nm, em=ICG, exposure time=1 s) at different time intervals
SKRC52 human renal tumor xenograft bearing mouse was injected with 10 nmol of 77 and imaged with IVIS imager (ex=745 nm, em=ICG, exposure time=1 s) at different time intervals
SKRC52 human renal tumor xenograft bearing mouse was injected with 10 nmol of 80 and imaged with IVIS imager (ex=745 nm, em=ICG, exposure time=1 s) at different time intervals
SKRC52 human renal tumor xenograft bearing mouse was injected with 10 nmol of 81 and imaged with IVIS imager (ex=745 nm, em=ICG, exposure time=1 s) at different time intervals
SKRC52 human renal tumor xenograft bearing mouse was injected with 10 nmol of 85 and imaged with IVIS imager (ex=745 nm, em=ICG, exposure time=1 s) at different time intervals
SKRC52 human renal tumor xenograft bearing mouse was injected with 10 nmol of 86 and imaged with IVIS imager (ex=745 nm, em=ICG, exposure time=1 s) at different time intervals
SKRC52 human renal tumor xenograft bearing mouse was injected with 10 nmol of 87 and imaged with IVIS imager (ex=745 nm, em=ICG, exposure time=1 s) at different time intervals
SKRC52 human renal tumor xenograft bearing mouse was injected with 10 nmol of 88 and imaged with IVIS imager (ex=745 nm, em=ICG, exposure time=1 s) at different time intervals
SKRC52 human renal tumor xenograft bearing mouse was injected with 10 nmol of 89 and imaged with IVIS imager (ex=745 nm, em=ICG, exposure time=1 s) at different time intervals
SKRC52 human renal tumor xenograft bearing mouse was injected with 10 nmol of 90 and imaged with IVIS imager (ex=745 nm, em=ICG, exposure time=1 s) at different time intervals
SKRC52 human renal tumor xenograft bearing mouse was injected with 10 nmol of 93 and imaged with IVIS imager (ex=745 nm, em=ICG, exposure time=1 s) at different time intervals
SKRC52 human renal tumor xenograft bearing mouse was injected with 10 nmol of 95 and imaged with IVIS imager (ex=745 nm, em=ICG, exposure time=1 s) at different time intervals
SKRC52 human renal tumor xenograft bearing mouse was injected with 10 nmol of 99 and imaged with IVIS imager (ex=745 nm, em=ICG, exposure time=1 s) at different time intervals […]
(In xenograft studies the graft and the host belong to different species.)

The test system of data set [3] is HCC827 (a human lung cancer cell line) tumor xenograft. Briefly: Whole body fluorescence imaging of HCC827 tumor xenograft bearing mouse (IVIS imager). Format: in vivo. The settings on record: 10 nmol. Here is the method: HCC827 (a human lung cancer cell line) tumor xenograft bearing mouse was injected with 10 nmol of 61 and imaged with IVIS imager (ex=745 nm, em=ICG, exposure time=1 s) at different time intervals.
as §1

The subject of data set [4] is MDA-MB-231, a triple negative breast cancer cell line. Briefly: OTL410 accumulation in MDA-MB-231 tumor xenografts (AMI imager). Format: in vivo. The settings on record: MDA-MB-231, 2 nmol/mouse, 4 h. Here is the method:
(§2) FIGS. 54A and 54B illustrate KB, a derivative of HeLa cervical cancer cell line. FIGS. 54C and 54D illustrate MDA-MB-231, a triple negative breast cancer cell line. FIGS. 54E and 54F illustrate FaDu, a head & neck cancer cell line; and FIGS. 54G and 54H illustrate HT29, a colorectal cancer cell line. OTL410 was administered at a dose of 2 nmol/mouse in 100 μl of 5% aqueous dextrose, and the images were collected 4 h later using an AMI imager with the mice under anesthesia.
(§3) Tumor Implantation and imaging: For establishing subcutaneous tumors from SKRC52, HT29 and 22RV1 cells, female nude mice were inoculated subcutaneously with 5×10^6 cells in 150 μl of 50% matrigel on the flank. […] Tumor sizes were measured using a digital calipers and tumor volumes were calculated using the formula (L/2)×W2 where L and W represent the length and width of the tumor. […] For the biodistribution studies, mice were euthanized at 3 h, 12 h or 24 h after injection of OTL410, and fluorescence images were collected ex vivo using the same instrument and imaging parameters described above. For quantification of tumor to background ratios, region of interest (ROI) was drawn for tumor and each tissue of interest and the total and mean fluorescence intensity were calculated using the proprietary software from Spectral Instruments. TBR for each organ and respective standard deviations were calculated using Excel software.

In data set [5] the test system is KB, a derivative of HeLa cervical cancer cell line. Kind of data set: OTL410 accumulation in KB tumor xenografts (AMI imager). Format: in vivo. Conditions: 2 nmol/mouse, 4 h. Here is the method:
as §2, §3

For data set [6], the system named is CAIX expressing SKRC52 tumor. Briefly: OTL410 fluorescence-guided resection of CAIX expressing SKRC52 tumor from nude mice. The class given is in vivo. Conditions: 1 nmol/mouse, euthanized 24 h later. Here is the method: OTL410 was administered at a dose of 1 nmol/mouse in 100 μl of 5% aqueous dextrose, and the mouse was euthanized 24 h later. FIG. 53A illustrates the image acquired after ex vivo whole-body fluorescence imaging and skin around the tumor was removed. FIG. 53B illustrates, guided by the fluorescence image, the image acquired after the tumor was resected.
as §3

A further data set deals with SKRC52 cells. Kind of data set: Uptake of OTL410 by SKRC cells in vitro by fluorescence microscopy. The class given is cell-based, human. Conditions: 100 nmols, 2 h. Here is the method: SKRC52 cells were incubated with 100 nmols of OTL410 for 2 h, and fluorescence images were acquired after removing unbound conjugate, and washing cells 2× with media.
For competition studies, 50,000 SKRC cells were grown on 8 well glass bottom slides for 48 h. Spent media was removed, and the cells were incubated with 100 nmols of OTL410 in 500 μl of fresh media alone or in presence of 200× non-fluorescent ligand (i.e. OTL410 without the dye) in a cell culture incubator for 2 h. Cells were then washed 2× with 500 μl of media, and after the second step of washing, 500 μl of serum free media was added to the cells. These cells were then imaged using a Nikon wide-field microscope.

Data set [7] deals with FaDu, a head & neck cancer cell line. Kind of data set: OTL410 accumulation in FaDu tumor xenografts (AMI imager). Format: in vivo. The settings on record: 2 nmol/mouse, 4 h. Here is the method:
as §2

Data set [8] relates to HT29, a colorectal cancer cell line. Kind of data set: OTL410 accumulation in HT29 tumor xenografts (AMI imager). Format: in vivo. Conditions: HT29, 2 nmol/mouse, 4 h. Here is the method:
as §2, §3

Another data set deals with SKRC52 xenografts. Briefly: Fluorescence imaging of tumor accumulation of OTL410 in nude mice bearing SKRC52 xenografts (AMI imager). Format: in vivo, mouse. Here is the method: FIG. 49 illustrates the time course of tumor accumulation by OTL410 by fluorescence imaging of nude mice bearing SKRC52 xenografts. After intravenous administration of 1 nmol of the conjugate in 100 μl of 5% aqueous dextrose, mice were anesthetized by isoflurane right before collecting each image. Tumor accumulation is evident as early as 15 min after injection of the conjugate, reaching peak intensity by 4 h.
Mice were euthanized by CO2 inhalation 3 h after intravenous administration of indicated concentrations of the conjugate, and epifluorescence images were collected ex vivo (Ex=745 nm, Em=810 nm FOV=25, binning 2, lamp power=55%). Five mice/per group were used for doses 0.25 nmol to 20 nmol, and image of 1 mouse representing each dose is presented.
Tumor Implantation and imaging: For establishing subcutaneous tumors from SKRC52, HT29 and 22RV1 cells, female nude mice were inoculated subcutaneously with 5×10^6 cells in 150 μl of 50% matrigel on the flank. KB tumors were established by inoculating female nude mice subcutaneously with 1×10^6 KB cells in 100 μl of folate deficient RPMI 1640 media. MDA MB-231 tumors were established by inoculating female nude mice subcutaneously with 2×10^6 cells in 100 μl of RPMI 1640 media. Tumor sizes were measured using a digital calipers and tumor volumes were calculated using the formula (L/2)×W2 where L and W represent the length and width of the tumor. When the tumors reached desired size (500-700 mm3), mice were randomly assigned to groups of 4-5. Each mouse was injected with varying concentrations of OTL410 in 100 μl of 5% aqueous dextrose. For the time course study, mice were imaged under anesthesia at varying time points starting at 15 minutes and up to 24 h using a Spectral AMI imaging system (Spectral Instruments Imaging) using the imaging parameters t=1 sec, f stop=2, FOV=25, binning=2, and lamp power=55%. For the biodistribution studies, mice were euthanized at 3 h, 12 h or 24 h after injection of OTL410, and fluorescence images were collected ex vivo using the same instrument and imaging parameters described above. For quantification of tumor to background ratios, region of interest (ROI) was drawn for tumor and each tissue of interest and the total and mean fluorescence intensity were calculated using the proprietary software from Spectral Instruments. TBR for each organ and respective standard deviations were calculated using Excel software.

Where [9] appears, read: 1 nmol intravenous in 5% aqueous dextrose.

For `CC1(C)C(/C=C/C2=C(Oc3ccc(C[C@H](NC(=O)CCOCCOCCNC(=O)CCS(=O)(=O)c4c(F)c(F)c(S(N)(=O)=O)c(F)c4NC4CCCCCCC4)C(=O)O)cc3)C(=C/C=C3/N(CCCCS(=O)(=O)O)c4ccc(S(=O)(=O)O)cc4C3(C)C)/CCC2)=[N+](CCCCS(=O)(=O)[O-])c2ccc(S(=O)(=O)O)cc21` [Compound 61, 4-(2-((E)-2-((E)-2-(4-((S)-2-carboxy-16-((2-(cyclooctylamino)-3,5,6-trifluoro-4-sulfamoylphenyl)sulfonyl)-4,14-dioxo-7,10-dioxa-3,13-diazahexadecyl)phenoxy)-3-(2-((E)-3,3-dimethyl-5-sulfo-1-(4-sulfobutyl)indolin-2-ylidene)ethylidene)cyclohex-1-en-1-yl)vinyl)-3,3-dimethyl-5-sulfo-3H-indol-1-ium-1-yl)butane-1-sulfonate], the “accumulation in CA IX-negative tumor xenografts of colon cancer versus other healthy tissues” value in data set [1] is reported as “selectively accumulated”. Further, the whole-body imaging data entry in data set [2] is “very good”. Also, the “accumulation in CA IX-negative tumor xenografts of lung cancer versus other healthy tissues” value in [3] is “selectively accumulated”.

Take `CC1(C)C(/C=C/C2=C(Oc3ccc(C[C@H](NC(=O)CCOCCOCCNC(=O)CCCS(=O)(=O)c4c(F)c(F)c(S(N)(=O)=O)c(F)c4NC4CCCCCCC4)C(=O)O)cc3)C(=C/C=C3/N(CCCCS(=O)(=O)O)c4ccc(S(=O)(=O)O)cc4C3(C)C)/CCC2)=[N+](CCCCS(=O)(=O)[O-])c2ccc(S(=O)(=O)O)cc21` [OTL410]: the “accumulation in tumor xenografts” value in data set [4], in data set [5], in data set [7] and in data set [8] was “tumor-specific accumulation” each time. Besides, the fluorescence-guided tumor resection result in data set [6] is given as “complete removal of the tumor with no fluorescent cells left behind”. In the data set with SKRC52 cells, the “uptake by SKRC cells in vitro” value is “uptake”. In the data set on SKRC52 xenografts (0.25 nmol to 20 nmol intravenous, 3 h, ex vivo images), the “dose dependence of accumulation in SKRC52 tumor xenografts” value was “dose dependent accumulation”. In addition, the “time after injection at which tumor accumulation is evident” value with SKRC52 xenografts (setting [9]) was at most 15 min. Further, the “time of peak tumor fluorescence intensity” value in the data set with SKRC52 xenografts (setting [9]) was at most 4 h. Besides, the “tumor fluorescence intensity at 8 h” value with SKRC52 xenografts (1 nmol intravenous, 8 h) is “No loss in fluorescence intensity”. In addition, the “tumor fluorescence intensity maintained after 24 h” value in the data set on SKRC52 xenografts (1 nmol intravenous, 24 h) was ~80 % of peak intensity.
